Experimental data as given in patent US6737383B1, “Herbicidal oxadiazolidines” (priority 1999, dated 2004).

Legend:
giant foxtail = experiment: Test B pre/postemergence giant foxtail; type: in vivo, Setaria faberii
How it was run: (§1)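 Test chemicals in a non-phytotoxic solvent mixture with surfactant were sprayed preemergence onto planted seeds and postemergence onto plants 2 to 18 cm tall (1- to 4-leaf stage). After twelve to sixteen days in a greenhouse, injury was visually rated against untreated controls from 0 (no effect) to 10 (complete control).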

cocklebur = experiment: Test B pre/postemergence cocklebur; type: in vivo, Xanthium strumarium
How it was run: as §1

soybean = experiment: Test B pre/postemergence soybean; type: in vivo, Glycine max
How it was run: as §1

blackgrass = experiment: Test B pre/postemergence blackgrass; type: in vivo, Alopecurus myosuroides
How it was run: as §1

velvetleaf = experiment: Test B pre/postemergence velvetleaf; type: in vivo, Abutilon theophrasti
How it was run: as §1

wild oat = experiment: Test B pre/postemergence wild oat; type: in vivo, Avena fatua
How it was run: as §1

duck salad = experiment: Test B flood test duck salad; type: in vivo, Heteranthera limosa
How it was run: (§2)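 Each value is a visual injury score relative to controls, with 10 meaning complete control and 0 no effect. Evaluation took place twelve to sixteen days after the 2-leaf-stage plants were treated and kept in the greenhouse.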

morningglory = experiment: Test B pre/postemergence morningglory; type: in vivo, Ipomoea hederacea
How it was run: as §1

rape = experiment: Test B pre/postemergence rape; type: in vivo, Brassica napus
How it was run: as §1

bedstraw = experiment: Test B pre/postemergence bedstraw; type: in vivo, Galium aparine
How it was run: as §1

smallflower flatsedge = experiment: Test B flood test smallflower flatsedge; type: in vivo, Cyperus difformis
How it was run: as §2

bamyardgrass = experiment: Test B flood test barnyardgrass; type: in vivo, Echinochloa crus-galli
How it was run: as §2

wheat = experiment: Test B pre/postemergence wheat; type: in vivo, Triticum aestivum
How it was run: as §1

corn = experiment: Test B pre/postemergence corn; type: in vivo, Zea mays
How it was run: as §1

surinam grass = experiment: Test B pre/postemergence surinam grass; type: in vivo, Brachiaria decumbens
How it was run: as §1

crabgrass = experiment: Test B pre/postemergence crabgrass; type: in vivo, Digitaria sanguinalis
How it was run: as §1

[1] = Postemergence, Rate 125 g/ha, scale 0 to 10, 0 is no effect, 10 is complete control
[2] = Postemergence, Rate 250 g/ha, scale 0 to 10, 0 is no effect, 10 is complete control
[3] = Postemergence, Rate 500 g/ha, scale of 0 to 10 where 0 is no effect and 10 is complete control
[4] = Preemergence, Rate 62 g/ha, scale 0 to 10 (0 no effect, 10 complete control)
[5] = Preemergence, Rate 125 g/ha, scale of 0 to 10 where 0 is no effect and 10 is complete control
[6] = Preemergence, Rate 250 g/ha, scale 0 to 10, 0 is no effect, 10 is complete control
[7] = Preemergence, Rate 500 g/ha, scale 0 to 10, 0 is no effect, 10 is complete control
[8] = Rate 62 g/ha, Postemergence, scale of 0 to 10 where 0 is no effect and 10 is complete control
[9] = Preemergence, Rate 250 g/ha, scale of 0 to 10 where 0 is no effect and 10 is complete control
[10] = Rate 62 g/ha, flood test species, Pre-emergence, visual evaluation after twelve to sixteen days
[11] = Rate 125 g/ha, under heading Pre-emergence, flood test species, visual evaluation after twelve to sixteen days
[12] = Rate 250 g/ha, Pre-emergence, flood-test species, scale 0 to 10, 0 is no effect, 10 is complete control
[13] = Rate 500 g/ha, Pre-emergence, flood test species, scale 0 to 10 (0 no effect, 10 complete control)

CC(C)N(C(=O)n1oc(=O)n(CC2CCC2)c1=O)c1ccc(F)cc1 [Compound 403]
8: Soybean plant response rating (soybean; [3]) | Wild oats plant response rating (wild oat; [7]) | Plant response rating, Morningglory (morningglory; [2]) | Bedstraw plant response rating (bedstraw; [3]) | Plant response rating, Crabgrass (crabgrass; [2])
6: Plant response rating, Soybean (soybean; [2]) | Blackgrass plant response rating (blackgrass; [8]) | Velvetleaf plant response rating (velvetleaf; [3]) | S. Flatsedge plant response rating (smallflower flatsedge; [13]) | Corn plant response rating (corn; [7]) | B. signalgrass plant response rating (surinam grass; [3])
4: Soybean plant response rating (soybean; [8]) | Plant response rating, Wild oats (wild oat; [5]) | Plant response rating, Rape (rape; [2]) | Barnyardgrass plant response rating (0 to 10 scale, 0 is no effect, 10 is complete control) (bamyardgrass; [11]) | Wheat plant response rating (wheat; [3]) | Plant response rating, B. signalgrass (surinam grass; [5])
2: Soybean plant response rating (soybean; [7]) | Plant response rating, Blackgrass (blackgrass; [4]) | Morningglory plant response rating (morningglory; [8]) | Rape plant response rating (rape; [8]) | Plant response rating, Bedstraw (bedstraw; [1]) | Plant response rating, Barnyardgrass (0 to 10 scale, 0 is no effect, 10 is complete control) (bamyardgrass; [10]) | Barnyardgrass plant response rating (bamyardgrass; [12]) | Plant response rating, Corn (corn; [5]) | Corn plant response rating (corn; [6]) | Plant response rating, B. signalgrass (surinam grass; [1]) | Crabgrass plant response rating (crabgrass; [8])
9: Plant response rating, Giant foxtail (giant foxtail; [2]) | Giant foxtail plant response rating (giant foxtail; [3]) | Plant response rating, Blackgrass (blackgrass; [1]) | Blackgrass plant response rating (blackgrass; [7]) | Crabgrass plant response rating (crabgrass; [3])
3: Plant response rating, Giant foxtail (giant foxtail; [1]) | Giant foxtail plant response rating (giant foxtail; [8]) | Velvetleaf plant response rating (velvetleaf; [6]) | Plant response rating, B. signalgrass (surinam grass; [2]) | Plant response rating, B. signalgrass (surinam grass; [4]) | Plant response rating, Crabgrass (crabgrass; [1])
0: Plant response rating, Cocklebur (cocklebur; [1]) | Plant response rating, Cocklebur (cocklebur; [2]) | Cocklebur plant response rating (cocklebur; [3]) | Plant response rating, Cocklebur (cocklebur; [4]) | Plant response rating, Cocklebur (cocklebur; [5]) | Cocklebur plant response rating (cocklebur; [6]) | Cocklebur plant response rating (cocklebur; [8]) | Plant response rating, Soybean (soybean; [4]) | Plant response rating, Soybean (soybean; [5]) | Soybean plant response rating (soybean; [6]) | Plant response rating, Velvetleaf (velvetleaf; [2]) | Plant response rating, Velvetleaf (velvetleaf; [4]) | Plant response rating, Velvetleaf (velvetleaf; [5]) | Velvetleaf plant response rating (velvetleaf; [8]) | Plant response rating, Wild oats (wild oat; [4]) | Wild oats plant response rating (wild oat; [8]) | Plant response rating, Ducksalad (0 to 10 scale, 0 is no effect, 10 is complete control) (duck salad; [10]) | Ducksalad plant response rating (0 to 10 scale, 0 is no effect, 10 is complete control) (duck salad; [11]) | Ducksalad plant response rating (duck salad; [12]) | Ducksalad plant response rating (duck salad; [13]) | Plant response rating, Morningglory (morningglory; [4]) | Plant response rating, Morningglory (morningglory; [5]) | Morningglory plant response rating (morningglory; [6]) | Morningglory plant response rating (morningglory; [7]) | Plant response rating, Rape (rape; [4]) | Plant response rating, Bedstraw (bedstraw; [4]) | Plant response rating, Bedstraw (bedstraw; [5]) | Bedstraw plant response rating (bedstraw; [8]) | Plant response rating, S. Flatsedge (0 to 10 scale, 0 is no effect, 10 is complete control) (smallflower flatsedge; [10]) | S. Flatsedge plant response rating (0 to 10 scale, 0 is no effect, 10 is complete control) (smallflower flatsedge; [11]) | S. Flatsedge plant response rating (smallflower flatsedge; [12]) | Plant response rating, Wheat (wheat; [4]) | Plant response rating, Wheat (wheat; [5]) | Wheat plant response rating (wheat; [6]) | Wheat plant response rating (wheat; [7]) | Wheat plant response rating (wheat; [8]) | Plant response rating, Corn (corn; [1]) | Plant response rating, Corn (corn; [2]) | Corn plant response rating (corn; [3]) | Plant response rating, Corn (corn; [4]) | Corn plant response rating (corn; [8]) | B. signalgrass plant response rating (surinam grass; [8])
1: Plant response rating, Rape (rape; [5])
10: Plant response rating, Giant foxtail (giant foxtail; [4]) | Plant response rating, Giant foxtail (giant foxtail; [5]) | Giant foxtail plant response rating (giant foxtail; [6]) | Giant foxtail plant response rating (giant foxtail; [7]) | Plant response rating, Blackgrass (blackgrass; [2]) | Blackgrass plant response rating (blackgrass; [3]) | Morningglory plant response rating (morningglory; [3]) | Plant response rating, Crabgrass (crabgrass; [4]) | Plant response rating, Crabgrass (crabgrass; [5]) | Crabgrass plant response rating (crabgrass; [6]) | Crabgrass plant response rating (crabgrass; [7])
7: Plant response rating, Blackgrass (blackgrass; [5]) | Blackgrass plant response rating (blackgrass; [9]) | Rape plant response rating (rape; [3]) | Rape plant response rating (rape; [7]) | Barnyardgrass plant response rating (bamyardgrass; [13]) | B. signalgrass plant response rating (surinam grass; Preemergence, Rate 500 g/ha, scale of 0 to 10 where 0 is no effect and 10 is complete control)
5: Velvetleaf plant response rating (velvetleaf; [7]) | Wild oats plant response rating (wild oat; [3]) | Wild oats plant response rating (wild oat; [6]) | Rape plant response rating (rape; [6]) | B. signalgrass plant response rating (surinam grass; [9])
